Results from patent US7008905B2, “Method of combating undesired plant growth on cereals” (BASF Aktiengesellschaft, priority 2000, dated 2006).

Legend:
Format in all cases: in vivo
[1] = test system: Triticum aestivum variety “Kanzler”; test: Pre-emergence test, selectivity; conditions: 3 weeks after treatment, rating 0-100 (100=death), Table 4
Protocol: (§1) The pre-emergence tests involve spraying a liquid formulation of the compound onto the soil in which the seeds of the plant species mentioned above has recently been sown.
(§2) The soil used in the tests is a prepared horticultural loam. The formulations used in the tests are prepared from solutions of the test compounds in acetone containing 0.4% by weight of an alkylphenol/ethylene oxide condensate available under the trade mark TRITON X-155.
(§3) These acetone solutions are diluted with water and the resulting formulations applied at dosage levels corresponding to 15 g, 30 g, 60 g, 120 g or 240 g of active material per hectare in a volume equivalent to 900 liters per hectare. In these tests untreated sown soil is used as control. The herbicidal effects of the test compounds are assessed visually three weeks after spraying the soil and are recorded an a 0 to 100 scale. A rating 0 indicates growth as untreated control, a rating 100 indicates death. An increase of 10 unit an the linear scale approximates to a 10% increase in the level of effect. The results of the assessment are set out in Tables 1 to 4.

[2] = test system: Triticum aestivum variety “Monopol”; test: Pre-emergence test, selectivity; conditions: 3 weeks after treatment, rating 0-100 (100=death), Table 4
Protocol: as §1, §2, §3

Matricaria inodora = test: Pre-emergence test, weed control; conditions: 3 weeks after treatment, rating 0-100 (100=death), Table 3
Protocol: as §1, §2
(§4) In these tests untreated sown soil is used as control. The herbicidal effects of the test compounds are assessed visually three weeks after spraying the soil and are recorded an a 0 to 100 scale. A rating 0 indicates growth as untreated control, a rating 100 indicates death. An increase of 10 unit an the linear scale approximates to a 10% increase in the level of effect. The results of the assessment are set out in Tables 1 to 4.

Galium aparine = test: Pre-emergence test, weed control; conditions: 3 weeks after treatment, rating 0-100 (100=death), Table 3
Protocol: as §1, §2, §4

Setaria viridis = test: Pre-emergence test, weed control; conditions: 3 weeks after treatment, rating 0-100 (100=death), Table 3
Protocol: as §1, §2, §4

Stellaria media = test: Pre-emergence test, weed control; conditions: 3 weeks after treatment, rating 0-100 (100=death), Table 3
Protocol: as §1, §2, §4

Lolium perenne = test: Pre-emergence test, weed control; conditions: 3 weeks after treatment, rating 0-100 (100=death), Table 3
Protocol: as §1, §2, §4

Poa annua = test: Pre-emergence test, weed control; conditions: 3 weeks after treatment, rating 0-100 (100=death), Table 3
Protocol: as §1, §2, §4

Alopecurus myosuroides = test: Pre-emergence test, weed control; conditions: 3 weeks after treatment, rating 0-100 (100=death), Table 3
Protocol: as §1, §2, §4

Veronica persica = test: Pre-emergence test, weed control; conditions: 3 weeks after treatment, rating 0-100 (100=death), Table 3
Protocol: as §1, §2, §4

Apera spica-venti = test: Pre-emergence test, weed control; conditions: 3 weeks after treatment, rating 0-100 (100=death), Table 3
Protocol: as §1, §2, §4

Lamium purpureum = test: Pre-emergence test, weed control; conditions: 3 weeks after treatment, rating 0-100 (100=death), Table 3
Protocol: as §1, §2, §4

PAPRH = test: Pre-emergence test, weed control; conditions: 3 weeks after treatment, rating 0-100 (100=death), Table 3
Protocol: as §1, §2, §3

VIOAR = test: Pre-emergence test, weed control; conditions: 3 weeks after treatment, rating 0-100 (100=death), Table 3
Protocol: as §1, §2, §3

wheat = test: Pre-emergence test, tolerance in wheat; conditions: in vivo
Protocol: as §1, §2, §3

CSc1cc(Oc2ccnc(Cl)c2)nc(-c2ccc(C(F)(F)F)cc2)n1 [REF-7]
5: TRZAWK rating (Selectivity) ([1]; 0.060 kg/ha) | TRZAWK rating (Selectivity) ([1]; 0.120 kg/ha) | TRZAWM rating (Selectivity) ([2]; 0.060 kg/ha) | TRZAWM rating (Selectivity) ([2]; 0.120 kg/ha)
90: MATIN weed control rating (Matricaria inodora; 0.030 kg/ha) | LOLPE weed control rating (Lolium perenne; 0.060 kg/ha) | ALOMY weed control rating (Alopecurus myosuroides; 0.240 kg/ha) | VERPE weed control rating (Veronica persica; 0.060 kg/ha) | LAMPU weed control rating (Lamium purpureum; 0.060 kg/ha)
30: LAMPU weed control rating (Lamium purpureum; 0.030 kg/ha)
240 g/ha: maximum tolerated dose in wheat / dose at which sufficiently selective in wheat (wheat)
85: SETVI weed control rating (Setaria viridis; 0.060 kg/ha)
35: SETVI weed control rating (Setaria viridis; 0.030 kg/ha) | ALOMY weed control rating (Alopecurus myosuroides; 0.060 kg/ha)
92: GALAP weed control rating (Galium aparine; 0.240 kg/ha)
93: SETVI weed control rating (Setaria viridis; 0.120 kg/ha) | LAMPU weed control rating (Lamium purpureum; 0.120 kg/ha)
75: LOLPE weed control rating (Lolium perenne; 0.030 kg/ha)
98: STEME weed control rating (Stellaria media; 0.060 kg/ha) | STEME weed control rating (Stellaria media; 0.120 kg/ha) | VIOAR weed control rating (VIOAR; 0.030 kg/ha)
95: POAAN weed control rating (Poa annua; 0.030 kg/ha) | POAAN weed control rating (Poa annua; 0.060 kg/ha) | PAPRH weed control rating (PAPRH; 0.030 kg/ha)
25: STEME weed control rating (Stellaria media; 0.030 kg/ha)
65: GALAP weed control rating (Galium aparine; 0.120 kg/ha) | ALOMY weed control rating (Alopecurus myosuroides; 0.120 kg/ha)
10: TRZAWM rating (Selectivity) ([2]; 0.240 kg/ha) | ALOMY weed control rating (Alopecurus myosuroides; 0.030 kg/ha)
18: TRZAWK rating (Selectivity) ([1]; 0.240 kg/ha)
2: TRZAWK rating (Selectivity) ([1]; 0.030 kg/ha) | TRZAWM rating (Selectivity) ([2]; 0.030 kg/ha)
100: MATIN weed control rating (Matricaria inodora; 0.060 kg/ha) | MATIN weed control rating (Matricaria inodora; 0.120 kg/ha) | MATIN weed control rating (Matricaria inodora; 0.240 kg/ha) | SETVI weed control rating (Setaria viridis; 0.240 kg/ha) | STEME weed control rating (Stellaria media; 0.240 kg/ha) | POAAN weed control rating (Poa annua; 0.120 kg/ha) | POAAN weed control rating (Poa annua; 0.240 kg/ha) | VERPE weed control rating (Veronica persica; 0.240 kg/ha) | APESV weed control rating (Apera spica-venti; 0.030 kg/ha) | APESV weed control rating (Apera spica-venti; 0.060 kg/ha) | APESV weed control rating (Apera spica-venti; 0.120 kg/ha) | APESV weed control rating (Apera spica-venti; 0.240 kg/ha) | LAMPU weed control rating (Lamium purpureum; 0.240 kg/ha) | PAPRH weed control rating (PAPRH; 0.060 kg/ha) | PAPRH weed control rating (PAPRH; 0.120 kg/ha) | PAPRH weed control rating (PAPRH; 0.240 kg/ha)
70: VERPE weed control rating (Veronica persica; 0.030 kg/ha)
99: LOLPE weed control rating (Lolium perenne; 0.240 kg/ha) | VERPE weed control rating (Veronica persica; 0.120 kg/ha) | VIOAR weed control rating (VIOAR; 0.060 kg/ha) | VIOAR weed control rating (VIOAR; 0.120 kg/ha) | VIOAR weed control rating (VIOAR; 0.240 kg/ha)
97: LOLPE weed control rating (Lolium perenne; 0.120 kg/ha)

COc1cnc(-c2ccc(C(F)(F)F)cc2)nc1Oc1ccnc(Cl)c1 [REF-8]
85: STEME weed control rating (Stellaria media; 0.060 kg/ha)
15: TRZAWM rating (Selectivity) ([2]; 0.120 kg/ha) | ALOMY weed control rating (Alopecurus myosuroides; 0.030 kg/ha)
95: MATIN weed control rating (Matricaria inodora; 0.030 kg/ha)
60: SETVI weed control rating (Setaria viridis; 0.030 kg/ha) | LOLPE weed control rating (Lolium perenne; 0.030 kg/ha)
120 g/ha: maximum tolerated dose in wheat / dose at which sufficiently selective in wheat (wheat)
35: STEME weed control rating (Stellaria media; 0.030 kg/ha) | ALOMY weed control rating (Alopecurus myosuroides; 0.060 kg/ha)
98: LAMPU weed control rating (Lamium purpureum; 0.030 kg/ha)
100: MATIN weed control rating (Matricaria inodora; 0.060 kg/ha) | MATIN weed control rating (Matricaria inodora; 0.120 kg/ha) | MATIN weed control rating (Matricaria inodora; 0.240 kg/ha) | SETVI weed control rating (Setaria viridis; 0.240 kg/ha) | STEME weed control rating (Stellaria media; 0.120 kg/ha) | STEME weed control rating (Stellaria media; 0.240 kg/ha) | POAAN weed control rating (Poa annua; 0.030 kg/ha) | POAAN weed control rating (Poa annua; 0.060 kg/ha) | POAAN weed control rating (Poa annua; 0.120 kg/ha) | POAAN weed control rating (Poa annua; 0.240 kg/ha) | VERPE weed control rating (Veronica persica; 0.030 kg/ha) | VERPE weed control rating (Veronica persica; 0.060 kg/ha) | VERPE weed control rating (Veronica persica; 0.120 kg/ha) | VERPE weed control rating (Veronica persica; 0.240 kg/ha) | APESV weed control rating (Apera spica-venti; 0.030 kg/ha) | APESV weed control rating (Apera spica-venti; 0.060 kg/ha) | APESV weed control rating (Apera spica-venti; 0.120 kg/ha) | APESV weed control rating (Apera spica-venti; 0.240 kg/ha) | LAMPU weed control rating (Lamium purpureum; 0.060 kg/ha) | LAMPU weed control rating (Lamium purpureum; 0.120 kg/ha) | LAMPU weed control rating (Lamium purpureum; 0.240 kg/ha) | PAPRH weed control rating (PAPRH; 0.030 kg/ha) | PAPRH weed control rating (PAPRH; 0.060 kg/ha) | PAPRH weed control rating (PAPRH; 0.120 kg/ha) | PAPRH weed control rating (PAPRH; 0.240 kg/ha) | VIOAR weed control rating (VIOAR; 0.120 kg/ha) | VIOAR weed control rating (VIOAR; 0.240 kg/ha)
1: TRZAWK rating (Selectivity) ([1]; 0.030 kg/ha) | TRZAWM rating (Selectivity) ([2]; 0.030 kg/ha)
99: LOLPE weed control rating (Lolium perenne; 0.120 kg/ha) | LOLPE weed control rating (Lolium perenne; 0.240 kg/ha) | VIOAR weed control rating (VIOAR; 0.030 kg/ha) | VIOAR weed control rating (VIOAR; 0.060 kg/ha)
5: TRZAWK rating (Selectivity) ([1]; 0.060 kg/ha)
70: GALAP weed control rating (Galium aparine; 0.120 kg/ha) | GALAP weed control rating (Galium aparine; 0.240 kg/ha) | ALOMY weed control rating (Alopecurus myosuroides; 0.120 kg/ha)
90: SETVI weed control rating (Setaria viridis; 0.060 kg/ha) | SETVI weed control rating (Setaria viridis; 0.120 kg/ha) | ALOMY weed control rating (Alopecurus myosuroides; 0.240 kg/ha)
3: TRZAWM rating (Selectivity) ([2]; 0.060 kg/ha) | GALAP weed control rating (Galium aparine; 0.030 kg/ha)
18: TRZAWK rating (Selectivity) ([1]; 0.240 kg/ha) | TRZAWM rating (Selectivity) ([2]; 0.240 kg/ha)
12: TRZAWK rating (Selectivity) ([1]; 0.120 kg/ha)
97: LOLPE weed control rating (Lolium perenne; 0.060 kg/ha)
